Experimental data taken from publication PMC7356692, “Structural Basis of Specific Glucoimidazole and Mannoimidazole Binding by Os3BGlu7” (Biomolecules, 2020).

Biological target: T1, Os3BGlu7 (Oryza sativa, UniProt Q75I93)
T1 construct: gene BGLU7; recombinant from E. coli Origami (DE3); IMAC, fusion tag removed with enterokinase; mature enzyme; two molecules per asymmetric unit
Test: X-ray crystallography, […] Å
Assay type: binding
Details: crystal soaked in 10 mM mannoimidazole preparation (GIm as contaminant or isomerization product); -1 subsite; pH 6.7

T1 sequence (Q75I93 29-504): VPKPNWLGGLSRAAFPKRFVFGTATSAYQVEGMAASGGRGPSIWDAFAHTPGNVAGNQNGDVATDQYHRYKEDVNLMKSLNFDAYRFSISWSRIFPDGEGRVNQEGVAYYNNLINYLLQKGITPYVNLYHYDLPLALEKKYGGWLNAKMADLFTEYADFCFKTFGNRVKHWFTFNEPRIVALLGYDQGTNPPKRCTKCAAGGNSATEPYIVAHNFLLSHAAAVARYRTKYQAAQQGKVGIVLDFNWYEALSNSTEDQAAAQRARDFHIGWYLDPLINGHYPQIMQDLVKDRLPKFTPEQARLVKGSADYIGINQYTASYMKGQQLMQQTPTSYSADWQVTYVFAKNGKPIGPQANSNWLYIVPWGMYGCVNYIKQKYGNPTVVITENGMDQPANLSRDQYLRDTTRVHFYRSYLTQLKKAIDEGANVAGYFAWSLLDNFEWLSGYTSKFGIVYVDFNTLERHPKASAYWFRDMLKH

With OC[C@@H]1[C@@H](O)[C@H](O)[C@@H](O)c2nccn21 [glucoimidazole] the “X-ray crystallography, 2.3 Å” value was “electron densities of ligand in the active sites of both protein molecules in the asymmetric unit”.
